# Test results as given in patent US20180284123A1, “BARCODED RAPID ASSAY PLATFORM USEFUL FOR EFFICIENT ANALYSIS OF CANDIDATE MOLECULES AND METHODS OF MAKING AND USING THE PLATFORM” (California Institute of Technology, priority 2017, published 2018).
# Numbered stars: 1 amine (or outer) side, 2 acyl side, 3 side chain; on linkers, the order of the positions; unused ones are H or OH. Bridge positions count the residues as written; N and C are the ends. Square brackets hold non-standard residues; d marks the D form. Triazole bridges read from a SMILES are 1,4-linked. Peptide text beside a SMILES is read from it. * marks the point of attachment. Biotin = O=C1N[C@H]2[C@H](CS[C@H]2CCCCC(=O)*)N1; Lys(N3) = [N-]=[N+]=NCCCC[C@H](N)C(=O)O; Ethylenediamine = C(CN[*:2])N[*:1]; PEG5 = NCCOCCOCCOCCOCCOCCC(=O)O; Pra = C#CC[C@H](N)C(=O)O
# Biological target: T1, KRAS (Homo sapiens, UniProt P01116)
# T1 construct: His6-tagged human KRas Isoform 4B (residues 1-169); His6; made in house; host or cells: E. coli BL21(DE3), PQE80 vector
# T1 sequence (P01116 1-169 isoform P01116-2): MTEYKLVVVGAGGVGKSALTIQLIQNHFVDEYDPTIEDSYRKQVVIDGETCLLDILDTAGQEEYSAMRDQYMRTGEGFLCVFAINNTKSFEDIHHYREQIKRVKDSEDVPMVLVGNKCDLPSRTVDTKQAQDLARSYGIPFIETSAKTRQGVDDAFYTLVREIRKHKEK
# Assay: B-RAP surface immunofluorescent assay, PCC ligand KRas EC50
# Assay type: binding
# Conditions: for Avg F635, Full Centroid / Avg F635, Full Lane / avg F635, Left Part Centroid / avg F635, Middle Part Centroid / avg F635, Right Part Centroid: 10 μM KRas well of plate #1, pixel by pixel; for avg F635, Left Part Centroid: left part of centroid; for avg F635, Middle Part Centroid: middle part of centroid; for avg F635, Right Part Centroid: right part of centroid; for EC50: 13-point KRas concentration series, each point in decaplicate, Hill coefficient=1
# Method: The barcode patterned microchip surface was partitioned into 16 individual microwells using a pre-fabricated PDMS slab. Individual biotinylated PCC candidates were complexed to specific SAC-DNA conjugates, combined into a cocktail, and then self-assembled, via DNA hybridization, onto designated barcode stripes (FIGS. 2-4). Incubation with a specific concentration of the target protein preceded incubation with a primary capture antibody and then a fluorophore-conjugated secondary detection antibody. During assay execution, each well represents a different target concentration or assay condition. Once developed, the fluorescence of the barcodes is digitized using a GenePix 4400A array scanner, with an excitation laser power optimized to a power level of 40% (60 W), which maximizes detection sensitivity while also minimizing signal saturation. Data extraction occurs using 10 μm radius circles, taken along the length of a barcode stripe. A fluorescence signal representing the average of all the pixels within a given circle is collected. A total of ten circles (data-blocks) are measured along a 180 μm span of the middle portion for each individual barcode lane in a given well. 10 μM KRas protein gave an average F635 of 47,868.7, with a standard deviation of 4154.53. 1 μM KRas protein gave an average F635 of 11437.6, with a standard deviation of 1602.202. 100 nM KRas protein gave an average F635 of 1780.6, with a standard deviation of 236.38. This illustrates the intensity across a stripe compared to the intensity from the data-block extraction. After extraction the data is background corrected. The background signal arises from (a) non-specific binding of the primary and secondary antibodies (independent of [KRas]), but can vary across different barcode stripes), and (b) non-specific binding of KRas protein ([KRas] dependent). Background (a) was assessed by measuring the average signal in the null protein well for each stripe. Background (b) was assessed by measuring the average fluorescence for the dummy ligand (Biotin* probe) that was in each well. The background subtracted data was then graphed in Graphpad Prism 7 and fitted to a sigmoidal curve (Hill coefficient=1).
# Measurement of PCC Ligand KRas EC50 with the Barcode Rapid Assay Platform
# Protein Incubation Buffer: Tris-buffered saline (TBS)+0.05% Tween20 (TBST)
# A pre-fabricated PDMS template was aligned onto the DNA barcode microchip, and the microchip was taped into a 10 cm petri dish. The wells on the platform were wet with 50 μL PBST before filling with blocking buffer and placing into a 37° C. incubator for 1 hr. Concurrently, 40 μL 1% BSA in PBS solutions containing 750 nM of a SAC-DNA conjugate and 3.75 μM of one biotinylated PCC ligand or biotin-A20-Cy3 blank were prepared for each SAC-DNA conjugate. The biotinylated ligands were allowed to complex with the SAC protein for one hour before pooling the SAC-DNA-ligand solutions (final [SAC-DNA-ligand conjugates]=50 nM). The blocking buffer was aspirated and each well was loaded with the SAC-DNA-ligand conjugates cocktail for hybridization with the DNA barcode at 37° C. for one hour. The wells were washed with PBST (3×) before loading serially diluted solutions of KRas protein in protein buffer (0 to 400 μM). After shaking at RT for one hour, the wells were rinsed with PBST (5×), making sure to pipet up/down with the first addition of PB ST. A (100:1) dilution of CST rabbit anti-Ras Ab (#39655) in 1° ab buffer was added to each well before shaking at RT for one hour. After rinsing the wells with PBST (3×), the wells were loaded with a (200:1) dilution of Abcam goat anti-rabbit-Alexafluor 647 linked ab (ab150079) in 2° ab buffer before shaking at RT for one hour. A final rinse of the wells with PBST (3×) proceeded peeling off the PDMS slab from the barcode microchip and dipping the barcode into the following solutions: PBS, (1:1) PBS: MQ H2O, MQ H2O (2×). […]
"Avg F635, Full Centroid","Avg F635, Full Lane","avg F635, Left Part Centroid","avg F635, Middle Part Centroid","avg F635, Right Part Centroid",EC50 [µM],Compound
16158,15157,15070,16390,17046,13.7 ± 4.8,"CC(C)[C@@H]1NC(=O)[C@H](CCC(=O)O)NC(=O)CNC(=O)[C@@H](N)Cc2cn(nn2)CCCC[C@@H](C(=O)NCCOCCOCCOCCOCCOCCC(=O)NCCNC(=O)CCCC[C@@H]2SC[C@@H]3NC(=O)N[C@@H]32)NC(=O)[C@@H]2CCCN2C(=O)[C@H](C(C)C)NC1=O (single isomer, unassigned) [Ligand L3b, GEVVP]"
11363,10434,10179,11181,12764,9.51 ± 2.2,"CC(C)[C@@H]1NC(=O)[C@@H](N)Cc2cn(nn2)CCCC[C@@H](C(=O)NCCOCCOCCOCCOCCOCCC(=O)NCCNC(=O)CCCC[C@@H]2SC[C@@H]3NC(=O)N[C@@H]32)NC(=O)[C@H](Cc2ccc(O)cc2)NC(=O)[C@@H]2CCCN2C(=O)[C@H](C(C)C)NC(=O)[C@H](CCC(=O)O)NC1=O (single isomer, unassigned) [Ligand L4a, VEVPY]"
27245,25079,23307,27398,31147,52.2 ± 22,"CC(C)[C@@H]1NC(=O)[C@@H](N)Cc2cn(nn2)CCCC[C@@H](C(=O)NCCOCCOCCOCCOCCOCCC(=O)NCCNC(=O)CCCC[C@@H]2SC[C@@H]3NC(=O)N[C@@H]32)NC(=O)[C@H](Cc2ccc(O)cc2)NC(=O)[C@@H]2CCCN2C(=O)[C@H](C(C)C)NC(=O)[C@H](CCC(=O)O)NC1=O (single isomer, unassigned) [Ligand L4b, VEVPY]"
8341,7851,7918,8920,8196,,"CC(C)[C@@H]1NC(=O)[C@H](CCC(=O)O)NC(=O)[C@H](C(C)C)NC(=O)[C@@H](N)Cc2cn(nn2)CCCC[C@@H](C(=O)NCCOCCOCCOCCOCCOCCC(=O)NCCNC(=O)CCCC[C@@H]2SC[C@@H]3NC(=O)N[C@@H]32)NC(=O)[C@@H]2CCCN2C(=O)[C@H](Cc2ccc(O)cc2)NC1=O (single isomer, unassigned) [Ligand L5a, VEVYP]"
32390,31581,31947,32789,32448,,"CC(C)[C@@H]1NC(=O)[C@H](CCC(=O)O)NC(=O)[C@H](C(C)C)NC(=O)[C@@H](N)Cc2cn(nn2)CCCC[C@@H](C(=O)NCCOCCOCCOCCOCCOCCC(=O)NCCNC(=O)CCCC[C@@H]2SC[C@@H]3NC(=O)N[C@@H]32)NC(=O)[C@@H]2CCCN2C(=O)[C@H](Cc2ccc(O)cc2)NC1=O (single isomer, unassigned) [Ligand L5b, VEVYP]"
53496,48537,48599,54620,57411,,"CC(C)[C@@H]1NC(=O)[C@@H](N)Cc2cn(nn2)CCCC[C@@H](C(=O)NCCOCCOCCOCCOCCOCCC(=O)NCCNC(=O)CCCC[C@@H]2SC[C@@H]3NC(=O)NC32)NC(=O)[C@H](Cc2ccc(O)cc2)NC(=O)[C@@H]2CCCN2C(=O)[C@H](C(C)C)NC(=O)[C@H](CCC(N)=O)NC1=O (stereo partly shown) [Ligand L7, VQVPY]"

# Further lines, the compound ahead of its results:
Compound,"Avg F635, Full Centroid","Avg F635, Full Lane","avg F635, Left Part Centroid","avg F635, Middle Part Centroid","avg F635, Right Part Centroid",EC50 [µM]
"CCC(C)[C@@H]1NC(=O)CNC(=O)[C@H](Cc2cnc[nH]2)NC(=O)[C@@H](N)Cc2cn(nn2)CCCC[C@@H](C(=O)NCCOCCOCCOCCOCCOCCC(=O)NCCNC(=O)CCCC[C@@H]2SC[C@@H]3NC(=O)N[C@@H]32)NC(=O)CNC(=O)[C@H](C(C)C)NC1=O (single isomer, unassigned) [Ligand L1b, HGIVG]",24340,22519,21889,24245,26959,
"CC(C)[C@@H]1NC(=O)[C@H](CCC(=O)O)NC(=O)CNC(=O)[C@@H](N)Cc2cn(nn2)CCCC[C@@H](C(=O)NCCOCCOCCOCCOCCOCCC(=O)NCCNC(=O)CCCC[C@@H]2SC[C@@H]3NC(=O)N[C@@H]32)NC(=O)[C@@H]2CCCN2C(=O)[C@H](C(C)C)NC1=O (single isomer, unassigned) [Ligand L3a, GEVVP]",8117,7151,7137,8430,8811,1.49 ± 0.28
"CC(C)[C@@H]1NC(=O)[C@@H](N)Cc2cn(nn2)CCCC[C@@H](C(=O)NCCOCCOCCOCCOCCOCCC(=O)NCCNC(=O)CCCC[C@@H]2SC[C@@H]3NC(=O)NC32)NC(=O)[C@H](Cc2ccc(O)cc2)NC(=O)[C@@H]2CCCN2C(=O)[C@H](C(C)C)NC(=O)[C@H](CCC(N)=O)NC1=O (single isomer, unassigned) [Ligand L7a, VQVPY]",36651,32992,32020,37152,40918,4.22 ± 0.71
"CC(C)[C@@H]1NC(=O)[C@@H](N)Cc2cn(nn2)CCCC[C@@H](C(=O)NCCOCCOCCOCCOCCOCCC(=O)NCCNC(=O)CCCC[C@@H]2SC[C@@H]3NC(=O)NC32)NC(=O)[C@H](Cc2ccc(O)cc2)NC(=O)[C@@H]2CCCN2C(=O)[C@H](C(C)C)NC(=O)[C@H](CCC(N)=O)NC1=O (single isomer, unassigned) [Ligand L7b, VQVPY]",16195,14791,12956,16944,18781,25.3 ± 8.9
CC(C)[C@@H]1NC(=O)[C@@H](N)Cc2cn(nn2)CCCC[C@@H](C(=O)NCCOCCOCCOCCOCCOCCC(=O)NCCNC(=O)CCCC[C@@H]2SC[C@@H]3NC(=O)N[C@@H]32)NC(=O)[C@H](Cc2ccc(O)cc2)NC(=O)[C@@H]2CCCN2C(=O)[C@H](C(C)C)NC(=O)[C@H]([C@@H](C)O)NC1=O [Ligand L6] (H-[Pra]VTVPY[Lys(N3)][PEG5]-{Ethylenediamine-Biotin}; triazole 1-7),17836,15968,15645,19382,18546,
